“Also recorded” adds a separate entry of the source. Read-outs that look alike come from different tables or passages of the source.
Columns and labels:
[1] = tested on: neurons of the CA1 region of the hippocampus; assay: Hippocampal slice assay: protection of CA1 neurons against hypoxic injury (recovery of population spike); format: cell-based, male Sprague-Dawley rats; details: for relative potency in hippocampal slices: comparison CYP-PA2 with CYP-PA1, or CYP-PA2X with CYP-PA2; for EC50: Rattus norvegicus, Neuron, 1 h, 50% recovery 60 minutes after hypoxia
Procedure: (2) Additional in vitro tests involving perfused slices of hippocampal tissue from the brains of sacrificed rats, as described in Example 8. Various poly-guanidino candidates with good combinations of N-channel and P/Q-channel blocking potency (as shown in the ligand blocking assays of Example 7) were tested to determine their ability to protect hippocampal neurons against damage during and after a period of tissue hypoxia.
The ability of CYP-PA1 and CYP-PA2 to protect against hypoxic injury in neurons of the CA1 region of the hippocampus was examined, using an assay which involves intact tissue sections taken from the hippocampal regions of rat brains. To carry out these assays, male Sprague-Dawley rats were briefly anesthetized with halothane and decapitated. Brains were quickly removed and placed in cold artificial cerebral spinal fluid (ACSF) for one minute. ACSF was composed of (in mM): NaCl, 126; KCl, 4; KH2 PO4, 1.4; MgSO4, 1.3; CaCl2, 2.4; NaHCO3, 26; and glucose, 4; pH 7.4, saturated with 95% O2, 5% CO2. Hippocampi were dissected free from the brains, and cut into 475 μm transverse sections (also called slices). The slices were placed in paired recording wells perfused with ACSF maintained at 37° C. Several hippocampal slices were placed in each recording well.
One hour after placement of the tissue slices into recording wells, the orthodromic CA1 population spike (PS) was measured. This indicator of synaptic and neuronal cell body function was elicited by stimulation with a twisted bipolar electrode placed over the CA3 Schaffer collaterals. Responses were recorded in the pyramidal layer of CA1, using a tungsten electrode. Strengths of currents and recording electrode depth were adjusted to obtain maximal amplitude of the CA1 PS. Only slices having an orthodromic CA1 PS of 3 mV or greater on initial assessment were used for further testing.
One tissue slice in each well was given orthodromic stimulation every 30 seconds throughout the experiment, in order to monitor evoked response activity. These slices were designated as "stimulated slices." In general, periodic stimulation provides an even more rigorous test of neuroprotective ability, since the repeated stimulation forces neurons to use up their metabolic resources after each impulse, to reestablish a polarized and ready-to-fire status.
For the remaining slices in each well, orthodromic and antidromic PS amplitude was assessed at the beginning and end of each experiment, without any periodic stimulation. These slices were designated as "unstimulated slices."
All slices were subjected to hypoxia by changing the perfusion medium to oxygen-devoid ACSF saturated with 95% N2, 5% CO2. Slices in one recording well additionally received exposure to various concentrations of the poly-guanidino compounds discussed above, added directly into the perfusion ACSF. Hypoxic duration was continued until 5 minutes after the disappearance of the hypoxic injury potential (Fairchild et al 1988) in the unmedicated stimulated slice. Final recovery was assessed 60 minutes after returning to oxygenated conditions. Exposure to the poly-guanidino compounds began 30 minutes prior to hypoxia and continued through the first 15 minutes of recovery.

[2] = LD50 toxicity test, intraperitoneal injection in mice; format: in vivo; details: for LD50: mouse, in vivo, ip
Procedure: At roughly the same time as the hippocampal tissue tests were being carried out, various polyamine compounds were also tested in toxicity tests, using conventional LD50 tests in mice. […] According, subsequent in vivo tests focused mainly on the CYP-PA1 compound.
These tests used intraperitoneal (IP) injection in mice.

L-type calcium channels = assay: Competitive inhibition of 3H-PN200-110 (or 3H-nitrendipine) binding to L-type calcium channels, rat brain neuronal membranes; details: Table 1
[3] = tested on: neurons in CA1 and CA2 fields of the hippocampus and in the subiculum; assay: In vivo protection against global brain ischemia (bilateral carotid occlusion, gerbils); parameters: species or system Adult male Mongolian gerbils; details: for protection against ischemia: gerbils, IP; for median number of visibly damaged neurons, CA2: saline controls 23.9; for median number of visibly damaged neurons, Subiculum: saline controls 214.0; for median number of visibly damaged neurons, CA1: saline controls 235.5
Procedure: Adult male Mongolian gerbils, 50 to 60 grams body weight, were put under methoxyflurane anesthesia and surgically subjected to reversible bilateral carotid occlusion for 5 minutes, using published methods (Wasterlain et al 1996). Occlusion was produced by exposure of both common carotid arteries via a ventral midline incision, isolation of the carotids with 4-0 silk suture, and application of microaneurysm clips. After five minutes of occlusion, the clips were removed, and the incision was closed. Body temperature was maintained at 37° C. throughout the surgical and recovery periods.
Blockage of both common carotids generates global brain ischemia in most gerbils. However, some gerbils contain a vascular structure at the base of the brain which resembles the Circle of Willis in humans, which allows some commingling of oxygenated blood from the carotid and vertebral arteries. Accordingly, the surgical method of generating global ischemia in gerbils by clamping flow through the carotids is not completely reliable in all test animals. To overcome this problem, a sufficient number of gerbils must be treated and tested to ensure statistically significant and reliable results.
A solution containing the test compound (or saline, as a control) was administered at the dosage and time described below, via intraperitoneal (IP) injection. The gerbils were sacrificed 72 hours later, and the brains were perfusion-fixed with paraformaldehyde. Serial sections of the brain were cut and stained with hematoxylin and eosin, and quantitative cell counts of live and dead neurons in the CA1 and CA2 fields of the hippocampus and in the subiculum were made, using both light and fluorescence microscopy. Evaluation of neuronal damage in other brain regions was also made on a semi-quantitative scale, and statistical analysis was performed on all damage scores (non-paired Student's T test).
The in vivo tests involving the CYP-PA2 compound used two different dosage regimens. One set of test animals received two injections: 30 mg/kg, at 30 minutes prior to the start of ischemia, and another 30 mg/kg at 90 minutes after the termination of ischemia. […] This neuroprotective activity was statistically significant at higher than the 95% level. A second set of test animals received a smaller dosage (10 mg/kg) of CYP-PA2, in a single injection 30 minutes before the onset of ischemia.
Tests on the CYP-PA1 compound used three different dosage levels: 7.5 mg/kg, injected 30 minutes before occlusion began; 20 mg/kg, injected 30 minutes before occlusion began; and 20 mg/kg, injected 30 minutes after occlusion was terminated.
The values reported in Table 3 are median numbers of visibly damaged neurons, counted in a single entire tissue slice.

L-type channels = details: background; cited from earlier work
T channels = details: background; cited from earlier work
[4] = stimulated slices, antidromic, read-out: EC50, antidromic PS amplitude, stimulated slices
[5] = stimulated slices, orthodromic, read-out: EC50, orthodromic PS amplitude, stimulated slices
[6] = unstimulated slices, antidromic, read-out: EC50, antidromic PS amplitude, unstimulated slices
[7] = unstimulated slices, orthodromic, read-out: EC50, orthodromic PS amplitude, unstimulated slices
[8] = 20 mg/kg IP post (30 minutes after occlusion terminated)

Row | Structure (SMILES) | relative potency in hippocampal slices [1] | neuroprotective activity in hippocampal slices [1] | EC50 [1, 4] [µM] | EC50 [1, 5] [µM] | EC50 [1, 6] [µM] | EC50 [1, 7] [µM] | IC50 (L-type calcium channels) [µM] | protection against ischemia [3] | binding to L-type channels (L-type channels) | binding to T channels (T channels) | other results
1 | N=C(N)NCCC[C@H](NC(=O)[C@@H](N)CCCNC(=N)N)C(=O)NCCN(CCN)CCNC(=O)[C@H](CCCNC(=N)N)NC(=O)[C@@H](N)CCCNC(=N)N [CYP-PA2X] | not as potent as the fully di-arginylated compound CYP-PA2 |  |  |  |  |  |  |  |  |  | 
2 | N=C(N)NCCC[C@H](NC(=O)[C@@H](N)CCCNC(=N)N)C(=O)NCCN(CCNC(=O)[C@H](CCCNC(=N)N)NC(=O)[C@@H](N)CCCNC(=N)N)CCNC(=O)[C@H](CCCNC(=N)N)NC(=O)[C@@H](N)CCCNC(=N)N [CYP-PA2, Tris(arginyl-arginyl-2-aminoethyl)amine] | somewhat more potent than the tri-arginine compound, CYP-PA1 | substantial neuroprotective activity; also recorded: potent neuroprotective benefits | 42 | 43 | 37 | 38 | > 100 | good neuroprotective activity; also recorded: substantial and beneficial protection against actual ischemia |  |  | LD50 ([2]; read-out: LD50): ~125 mg/kg; LD50 ([2]; read-out: LD50 level): 125 mg/kg; statistical significance of reduction of neuronal damage ([3]; 10 mg/kg IP single injection): did not reach the 95% confidence level; neurons damaged ([3]; 10 mg/kg IP single injection 30 minutes before ischemia, untreated control 74.6%): 56.1%; neurons showing visible damage ([3]; 2 x 30 mg/kg IP, 30 minutes before and 90 minutes after ischemia, untreated control 74.6%): 40.9%; statistical significance of neuroprotective activity ([3]; 2 x 30 mg/kg IP, confidence level): > 95%
3 | COC(=O)C1=C(C)NC(C)=C(C(=O)OCCN(C)Cc2ccccc2)C1c1cccc([N+](=O)[O-])c1 (centres unmarked) [nicardipine] |  |  |  |  |  |  |  |  | bind to L-type channels | not to T or N channels | 
4 | Fc1ccc(C(c2ccc(F)cc2)N2CCN(C/C=C/c3ccccc3)CC2)cc1 [flunarizine] |  |  |  |  |  |  |  |  | bind to L-type channels | not to T or N channels | 
5 | N=C(N)NCCC[C@H](N)C(=O)NCCN(CCNC(=O)[C@@H](N)CCCNC(=N)N)CCNC(=O)[C@@H](N)CCCNC(=N)N [CYP-PA1, tris(arginyl-2-aminoethyl)amine] |  | substantial neuroprotective activity | 95 | 97 | 87 | 90 | > 300 | quite substantial and beneficial; also recorded: substantial and beneficial protection against actual ischemia |  |  | toxicity: lethal or other adverse effects ([2]; IP, even at highest dosage tested (200 mg/kg)): no detectable lethal or other adverse effects; also recorded: completely free of any toxicity concerns; median number of visibly damaged neurons, CA2 ([3]; 7.5 mg/kg IP pre-occlusion): 15.2; median number of visibly damaged neurons, Subiculum ([3]; 7.5 mg/kg IP pre-occlusion): 91.5; median number of visibly damaged neurons, CA1 ([3]; 7.5 mg/kg IP pre-occlusion): 37.5; median number of visibly damaged neurons, CA2 [3, 8]: 14.7; median number of visibly damaged neurons, Subiculum [3, 8]: 31.0; median number of visibly damaged neurons, CA1 [3, 8]: 14.5; median number of visibly damaged neurons, CA2 ([3]; 20 mg/kg IP pre-occlusion): 10.4; median number of visibly damaged neurons, Subiculum ([3]; 20 mg/kg IP pre-occlusion): 38.5; median number of visibly damaged neurons, CA1 ([3]; 20 mg/kg IP pre-occlusion): 18.0; significance of reduction in neuronal damage, CA2 ([3]; CA2 region): did not rise to the level of significance at the 95% confidence level; number of injured neurons vs saline-treated controls ([3]; all treatment dosages): substantially reduced; significance level of reduction in neuronal damage, subiculum and CA1 ([3]; subiculum and CA1 regions): ≥ 98%
6 | COC(=O)C1=C(C)NC(C)=C(C(=O)OC)C1c1ccccc1[N+](=O)[O-] [nifedipine] |  |  |  |  |  |  |  |  | bind to L-type channels | not to T or N channels | 
